Structures are written as SMILES.

The subject of one experiment is MB231 cells. The experiment in a line: ASNS and CHOP mRNA by RT-PCR as readout for amino acid deprivation. The settings on record: SLC6A14-negative MB231, α-MT 2.5 mM, 24, 48 or 72 h. The format is cell-based, human. The procedure:
(§1) FIGS. 6A to 6C. Effects of SLC6A14 blockade with α-MT in breast cancer cells. In FIG. 6A, MCF10A (a non-malignant mammary epithelial cell line), MCF7 (an ER-positive breast cancer cell line), and MB231 (an ER-negative breast cancer cell line) cells were treated with or without 2.5 mM α-MT for 24, 48, or 72 h and then used for analysis of asparagine synthetase (ASNS) and CHOP mRNA levels. In FIG. 6B, MCF7, MB231 and MCF10A cells were treated with or without 2.5 mM α-MT for 48 h and then used for immunocytochemical analysis of the constitutively expressed LC-3. In FIG. 6C, MCF7 cells were treated with (“b” and “c”) or without (“a”) α-MT (2.5 mM) for 48 h and then used for electron microscopy. Arrows indicate sequestration of cytoplasm and organelles in pre-autophagosomes and autophagosome, and the asterisk indicates condensed chromatin. N, nucleus.
(§2) RT-PCR. Total RNA was isolated using TRIZOL™ (Invitrogen). 2 μg of RNA was reverse transcribed using the GeneAmp PCR System (Applied Biosystems, Branchburg, N.J.). PCR reaction was performed under optimal conditions specific for each of the primer pairs. GAPDH (glyceraldehyde-3-phosphate dehydrogenase) or HPRT1 (hypoxanthine/guanine phosphoribosyl transferase-1) were used as internal controls. PCR products were size-fractionated on agarose gel, stained with ethidium bromide and imaged using Alpha Imager (Santa Clara, Calif.). […]

The subject of a further experiment is MCF10A cells. The experiment is described as above. The format is cell-based, human. To be noted: SLC6A14-negative MCF10A, α-MT 2.5 mM, 24, 48 or 72 h. How it is done:
as §1, §2

In the next experiment the test system is MCF7 cells. The experiment in a line: Xenograft in nude mice with estrogen pellets, tumor growth. The format is in vivo, Balb/c nude mice. The settings on record: MCF7 (ER-positive) in the presence of estrogen administration, α-MT in drinking water 2 mg/ml. The procedure:
FIGS. 10A to 10D. In vivo efficacy of α-MT in the treatment of ER-positive breast cancer. ZR75.1 (FIG. 10A), MCF7 (FIG. 10B), and MB-231 (FIG. 10C) cells were injected subcutaneously (sc) into Balb/c nude mice (10×10^6 cells per injection site). For MCF7 cells, slow-releasing estrogen pellets were implanted to support the tumor growth. For each cell line, the control group received water with sucrose and the treatment group received α-MT (2 mg/ml) in water with sucrose. Tumor size was measured periodically. NS, not statistically significant (p>0.05); *, p<0.005; two-tailed unpaired Student's t test. In FIG. 10D, Balb/c nude mice were divided into two groups; the control group received water with sucrose and the treatment group received α-MT (2 mg/ml) in water with sucrose for 2 weeks. Mice were then bled and α-MT in plasma was determined by HPLC. Xenograft in nude mice. Human breast cancer cells (ZR75.1, MCF7, and MB231) were injected s.c. close to the lower mammary gland on the right side of Balb/c nude mice (10×10^6 cells per injection site). Only for MCF7 cells, slow-releasing estrogen pellets were implanted to support the tumor growth. Implantation of estrogen pellets was done as follows. […] Tumor size in control and treatment groups was measured periodically by caliper and […] was calculated using the formula (width^2×length)/2.

As to `CC(N)(Cc1c[nH]c2ccccc12)C(=O)O` (racemic) [α-MT, α-methyl-DL-tryptophan], the “levels of asparagine synthetase mRNA and CHOP mRNA” value with MB231 cells and with MCF10A cells was “not” in each case. In addition, in the experiment on MCF7 cells, the “tumor growth in xenograft” value is on record as “did not affect the growth”.

Values taken from patent US20140024663A1, “ATB(0,+) AMINO ACID TRANSPORTER AS A DRUG TARGET FOR TREATMENT OF ESTROGEN RECEPTOR-POSITIVE BREAST CANCER” (GEORGIA HEALTH SCIENCES UNIVERSITY RESEARCH INSTITUTE, INC., priority 2012, published 2014).
